Target: T1, Human STING (Homo sapiens, UniProt Q86WV6, G230A/H232R/R293Q/R71H)
T1 construct: host or cells: THP1-Dual cells (human monocytic reporter line)
Experiment: THP1-Dual cell assay, IRF pathway reporter luminescence readout (QUANTI-Luc)
Assay type: cell-based
Details: THP1-Dual cells, 24 h, 30 μM, Table 2
Description: STING pathway activation by the compounds described herein was measured using THP-1 dual cells. These cells are THP1 monocytes that have been modified to be reporters for the IRF pathway, which is activated by STING agonists in these cells.
THP1-Dual cells (obtained from Invivogen) are maintained in growth medium with 100 ug/ml of Zeocin and 10 ug/ml of blasticidin at 37° C., 5% CO2, the cells were passaged every 3 days by inoculating 7×10^5 cells per ml and centrifuged at 1000 rpm for 5 min. Supernatant was removed and THP-1 Dual cells were re-suspended at 5×10^5 cells/ml in fresh pre-warmed growth medium.
[…]. 50 ul of Cell suspension (about 2.5×10^4 cells per well) was added in 384-well plate, which was incubated for 24 hours at 37° C., 5% CO2. QUANTI-Luc was prepared and used following the manufacturer's instructions, 5×10^3 cells per well were seeded in 40 μl medium and incubated overnight. Luminometer was set with the following parameters: 50u of injection, end-point measurement with a 4 second start time and 0.1 second reading time. 10 ul of THP-1 Dual cell culture medium per well was added into a 96-well white (opaque) plate, luminescence was measured and calculated.

T1 sequence (Q86WV6 whole entry R71H/G230A/H232R/R293Q): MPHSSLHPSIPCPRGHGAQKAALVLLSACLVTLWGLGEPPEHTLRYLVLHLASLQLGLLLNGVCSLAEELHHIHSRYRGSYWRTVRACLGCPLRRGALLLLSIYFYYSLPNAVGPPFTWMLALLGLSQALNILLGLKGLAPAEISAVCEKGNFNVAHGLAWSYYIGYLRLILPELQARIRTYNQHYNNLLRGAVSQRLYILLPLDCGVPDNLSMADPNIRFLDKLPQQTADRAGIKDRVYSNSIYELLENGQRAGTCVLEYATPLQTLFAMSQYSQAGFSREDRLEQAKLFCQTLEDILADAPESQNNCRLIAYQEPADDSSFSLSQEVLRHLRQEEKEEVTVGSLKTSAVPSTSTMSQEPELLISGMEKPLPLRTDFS

| Compound | Readout Average | Readout n = 1 | Readout n = 2 |
| --- | --- | --- | --- |
| BP1(=O)OC[C@H]2O[C@@H](n3cnc4c(NCc5ccccc5)ncnc43)[C@H](OP(=O)(S)OC[C@H]3O[C@@H](n4cnc5c(NCc6ccccc6)ncnc54)[C@H](O)[C@@H]3O1)[C@@H]2O (single isomer, unassigned) [Compound D3] | 273875 | 289010 | 258740 |
| BP1(=O)OC[C@H]2O[C@@H](n3cnc4c(NCc5ccccc5)ncnc43)[C@H](OP(=O)(S)OC[C@H]3O[C@@H](n4cnc5c(NCc6ccccc6)ncnc54)[C@H](O)[C@@H]3O1)[C@@H]2O (single isomer, unassigned) [Compound D1] | 22040 | 22420 | 21660 |

Source: patent US11773132B2, “Cyclic di-nucleotides as stimulator of interferon genes modulators” (Beijing Xuanyi PharmaSciences Co., Ltd., priority 2017, dated 2023)
